Assay results: patent publication US20200384116A1, “SELF-ASSEMBLING VERTEPORFIN AMPHIPHILES (SAVA) FOR LOCAL CANCER THERAPY” (THE JOHNS HOPKINS UNIVERSITY, priority 2016, published 2020)

Legend:
Type in all cases: cell-based
[1] = test system: SW480, PANC-1, MDA-MD-231, MDA-MD-468 and HELA cell lines; assay: MTT proliferation assay, non-CNS tumor cell lines; details: 12.5 μM, 5 or 6 days, in words
Description: (§1) Cells tested were subjected to the following protocol: Day 1: 7000 cells per well were seeded in a 96-well plate. Day 3: cells were treated with 12.5 μM of Verteporfin (treatment group) and its equivalent DMSO concentration (control group) in 200 μl of media/well. Proliferation was assessed using MTT at Day 8, 9 using the following method:
(§2) MTT stock solution (5 mg/ml) is added to each culture being assayed to equal one-tenth the original culture volume and incubated for 4 hr. At the end of the incubation period the medium is removed the converted dye is solubilized with 100% isopropanol. Absorbance of converted dye is measured at a wavelength of 570 nm.
The cell lines SW480 (colon adenocarcinoma), PANC-1 (pancreatic cancer), MDA-MD-231 (breast adenocarcinoma), MDA-MD-468 (metastatic breast carcinoma triple negative), and HELA (cervical carcinoma) were treated with 12.5 μM of the SAVA composition, Ver-RGDR, or DMSO (solvent control) for 5 days (FIG. 5a) or 6 days (FIG. 5b) in culture. Cell proliferation was then assessed using the MTT protocol. […] P-values: All cell lines tested at day 5 and 6 had p<0.0001 compared to their corresponding DMSO control. The results were statistically significant.

[2] = test system: malignant meningioma cell line KT21-MG1; assay: MTT cell survival, KT21-MG1
Description: (§3) Cells tested were subjected to the following protocol: Day 1: 7000 cells per well were seeded in a 96-well plate. […]
as §2
(§4) The malignant meningioma cell lines KT21-MG1 (FIG. 7), IOMM-Lee (FIG. 8), the primary patient-derived GBM cell lines, JHGB612 and GBM1A, and a patient-derived primary chordoma cell line, JHC7 (FIG. 9) were all tested with a SAVA composition of the present invention, using the protocol of Example 3. All should significant dose-dependent effect on cell survival when compared to controls.

[3] = test system: malignant meningioma cell line IOMM-Lee; assay: MTT cell survival, IOMM-Lee
Description: as §3, §2, §4

[4] = test system: primary patient-derived GBM cell line JHGB612; assay: MTT cell survival, JHGB612; details: dose-dependent, vs controls
Description: as §1, §2, §4

[5] = test system: primary patient-derived GBM cell line GBM1A; assay: MTT cell survival, GBM1A; details: dose-dependent, vs controls
Description: as §1, §2, §4

[6] = test system: patient-derived primary chordoma cell line JHC7; assay: MTT cell survival, JHC7; details: dose-dependent, vs controls
Description: as §1, §2, §4

verteporfin
proliferation of non-CNS tumor cells [1]: decreases proliferation | cell survival ([2]; 3 days of treatment): decreases cell survival | cell survival ([2]; 5 days of treatment): decreases cell survival | cell survival ([3]; 3 days of treatment): decreases cell survival | cell survival ([3]; 5 days of treatment): decreases cell survival | effect on proliferation and cell survival [4]: profound dose dependent effect on glioblastoma proliferation and cell survival | effect on proliferation and cell survival [5]: profound dose dependent effect on glioblastoma proliferation and cell survival | effect on cell survival and proliferation [6]: dose dependent effect on chordoma cell survival and proliferation
